According to paper PMC11431997, “Baicalin Inhibits FIPV Infection In Vitro by Modulating the PI3K-AKT Pathway and Apoptosis Pathway” (International Journal of Molecular Sciences, 2024):
In brackets after ≈: the same amount, converted by molar mass.

What was measured:
[1] = test system: PI3K-AKT signaling pathway and apoptosis pathway; assay: Western blot of key proteins in FIPV-infected CRFK cells; type: cell-based, feline; conditions: treatment group vs FIPV group, p < 0.05
Description: Based on the results of the above experiments, the cell precipitates were collected according to the method in Section 4.6 and grouped as described in Section 4.7. After infection, the cells were collected at the appropriate time of infection, and the proteins were extracted from the samples according to the instructions of a total protein extraction kit (strong) (Solarbio, Beijing, China). Afterwards, the protein concentration of the extracted samples was determined separately using a BCA Protein Quantification Kit (Vazyme, Nanjing, China), and all sample proteins were diluted to the same concentration using PBS. The diluted protein samples were mixed with NuPAGE LDS Sample Buffer (4×) (Invitrogen, Waltham, MA, USA) at a ratio of 1:4 and heated at 70 °C for 10 min to denature the proteins. After that, the denatured proteins were added to 10 wells of 12% sodium dodecyl sulfate-polyacrylamide gel electrophoresis (SDS-PAGE) (Vazyme, Nanjing, China) at 20 μg/well, after which the total proteins were separated on NuPAGE MES SDS Running Buffer (Invitrogen, CA, USA). After separation, proteins were transferred from the gel onto 0.45 μm polyvinylidene fluoride (PVDF) membranes (Millipore, Billerica, MA, USA) using WB Transfer Buffer (Solarbio, Beijing, China). After that, the PVDF membranes were blocked with 5% skim milk (Solarbio, Beijing, China) at room temperature for 2 h. At the end of the closure, the membranes were washed with TBST (6 times, each time for 5 min, as described below); then. the primary antibodies were added and incubated at 4 °C overnight. The next day, the PVDF membranes were washed with TBST, the primary antibodies were removed, and the secondary antibodies were added and incubated at room temperature for 2 h (the antibody information and dilutions are shown in Section 4.1.4). At the end of the incubation, the PVDF membranes were washed with TBST, after which the protein bands were exposed and imaged using a SuperPico ECL Chemiluminescence Kit (Vazyme, Nanjing, China) and an Al680 imaging system (GE, Boston, MA, USA). The gray values of the WB bands were analyzed using ImageJ 1.54f, and the relative expression was calculated using GAPDH as an internal reference protein.

FIPV (BJ-01) [2] = assay: Impact of the compound on FIPV replication (compound added after infection, CCK-8); type: cell-based, feline infectious peritonitis virus
Description: According to previous methods, CRFK cells were seeded in 96-well cell culture plates at a density of 1 × 10^4 cells/well and cultured at 37 °C in 5% CO2 until the cell density was greater than 90%. Then, the medium was discarded, and the cells were washed twice with PBS. FIPV was first added into 96-well cell culture plates at 100 μL/well then incubated at 37 °C and 5% CO2 for 1, 2, 4, 6, 8, 10, 12, and 14 h, respectively. After that, the viral solution was discarded and washed with PBS twice and then the compound was added at 100 μL/well and incubated at 37 °C and 5% CO2 (at the same time, a cell control group with only 100 μL of MM and a viral control group with only 100 μL of FIPV were added). There were 3 replicate wells for each compound and group. After the CPE of the viral control group reached more than 80%, the liquid in the culture plate was removed and washed twice with PBS. Afterwards, the IR of the compounds against the virus was computed according to the directions of the Cell Counting Kit-8.

FIPV (BJ-01) [3] = assay: Impact of the compound on FIPV adsorption (cells pre-incubated with compound, CCK-8); type: cell-based, feline infectious peritonitis virus; conditions: cells co-cultured with baicalin before FIPV, all times
Description: According to previous methods, CRFK cells were seeded in 96-well cell culture plates at a density of 1 × 10^4 cells/well and cultured at 37 °C in 5% CO2 until the cell density was greater than 90%. Then, the medium was discarded, and the cells were washed twice with PBS. The compound was first added into 96-well cell culture plates at 100 μL/well and then incubated at 37 °C and 5% CO2 for […], 1, 2, 4, and 6 h, respectively, then incubated at 4 °C for 1 h. After that, the liquid in the plates was removed and washed with PBS twice. Then, added FIPV into cells at 100 μL/well and incubated at 37 °C and 5% CO2 (at the same time, a cell control group with only 100 μL of MM and a viral control group with only 100 μL of FIPV were added). There were 3 replicate wells for each compound and group. After the CPE of the viral control group reached more than 80%, the liquid in the culture plate was removed and washed twice with PBS. Afterwards, the IR of the compounds against the virus was computed according to the directions of the Cell Counting Kit-8.

[4] = Cytotoxicity assay of the compounds (CCK-8); type: cell-based, feline; conditions: cat
Description: (§1) CRFK cells were seeded in 96-well cell culture plates at a density of 1 × 10^4 cells/well and incubated at 37 °C with 5% CO2 until the cell density reached more than 90%. Then, the medium was discarded, and the cells were washed twice with PBS. The compound to be tested was diluted in 10 successive gradients with MM at a 2-fold multiplicity (at the same time, there was a cell control group of 100 μL of MM, and 3 replicate wells were set for each concentration and group) and incubated at 37 °C with 5% CO2 for 72 h; then, the liquid in the plate was discarded and washed twice with PBS. Afterwards, the cytopathic ratios (CRs) of the compounds to cells were calculated according to the instructions of the Cell Counting Kit-8 (MCE, NJ, USA), and the CC50s of the compounds and the MNTCs at which the compounds could survive more than 90% of the cells were calculated using GraphPad Prism 10. In subsequent experiments, the final concentrations of the compounds after addition were the MNTCs of the compounds unless otherwise specified.

CRFK cells = assay: Cytotoxicity assay of the compounds (CCK-8); type: cell-based, feline; conditions: cat, 72 h
Description: as §1

O=C(O)[C@H]1O[C@@H](Oc2cc3oc(-c4ccccc4)cc(=O)c3c(O)c2O)[C@H](O)[C@@H](O)[C@@H]1O [Baicalin]
Bax relative expression (WB, GAPDH reference) [1]: significantly downregulated | Bcl-2/Bax relative expression (WB) [1]: significantly upregulated | Bcl-2 relative expression (WB, GAPDH reference) [1]: significantly upregulated | EGFR relative expression (WB, GAPDH reference) [1]: significantly upregulated | PI3K relative expression (WB, GAPDH reference) [1]: significantly upregulated | cleaved caspase 9 relative expression (WB, GAPDH reference) [1]: significantly downregulated | inhibition rate on FIPV (replication blocking) (FIPV (BJ-01) [2]; baicalin added after 10 h of infection): significantly reduced | inhibition rate on FIPV (replication blocking) (FIPV (BJ-01) [2]; baicalin added within 8 h of FIPV infection of CRFK cells): more than 50% | inhibition rate on FIPV infection (adsorption) (FIPV (BJ-01) [3]): ≤ 50% | CC50 at 72 h [4]: 114 µg/mL (≈ 257 µM) | MNTC (maximum noncytotoxic concentration) (CRFK cells): 31.36 µg/mL
